Laboratory results as given in article PMC3057395 (ChemMedChem, 2009).
Where two headings read alike, the source gives them in different places.

Target: mouse PKCα (Mus musculus, UniProt P20444)
Assay: PKC binding assay

## CC(=O)SCCCOc1ccc2c(c1)N(C)[C@@H](C(C)C)C(=O)N[C@H](CO)C2 [compound 9, Thioacetic acid S-[3-(5-hydroxymethyl-2-isopropyl-1-methyl-3-oxo-1,2,3,4,5,6-hexahydro-benzo[e] [1,4]diazocin-9-yloxy)-propyl] ester]
  Ki: 21 ± 2.8 nM

## CC(=O)SCCCCCOc1ccc2c(c1)N(C)[C@@H](C(C)C)C(=O)N[C@H](CO)C2 [compound 11, Thioacetic acid S-[5-(5-hydroxymethyl-2-isopropyl-1-methyl-3-oxo-1,2,3,4,5,6-hexahydro-benzo[e] [1,4]diazocin-9-yloxy)-pentyl] ester]
  Ki: 6.6 ± 0.2 nM

## CC(=O)SCCCCCCCOc1ccc2c(c1)N(C)[C@@H](C(C)C)C(=O)N[C@H](CO)C2 [compound 13, Thioacetic acid S-[7-(5-hydroxymethyl-2-isopropyl-1-methyl-3-oxo-1,2,3,4,5,6-hexahydrobenzo[e] [1,4]diazocin-9-yloxy)-heptyl] ester]
  Ki: 4.5 ± 0.4 nM

## CC(=O)SCCCCCCCCOc1ccc2c(c1)N(C)[C@@H](C(C)C)C(=O)N[C@H](CO)C2 [compound 14, Thioacetic acid S-[8-(5-hydroxymethyl-2-isopropyl-1-methyl-3-oxo-1,2,3,4,5,6-hexahydro-benzo[e] [1,4]diazocin-9-yloxy)-octyl] ester]
  Ki: 2.8 ± 0.5 nM

## C=CCCCCCOc1ccc2c(c1)N(C)[C@@H](C(C)C)C(=O)N[C@H](CO)C2 [compound 3, 9-Hept-6-enyloxy-5-hydroxymethyl-2-isopropyl-1-methyl-1,4,5,6-tetrahydro-2H-benzo[e][1,4] diazocin-3-one]
  Ki: 5.4 ± 0.1 nM

## CC(=O)SCCCCOc1ccc2c(c1)N(C)[C@@H](C(C)C)C(=O)N[C@H](CO)C2 [compound 10, Thioacetic acid S-[4-(5-hydroxymethyl-2-isopropyl-1-methyl-3-oxo-1,2,3,4,5,6-hexahydro-benzo [e][1,4]diazocin-9-yloxy)-butyl] ester]
  Ki: 15.8 ± 0.8 nM

## CC(C)[C@H]1C(=O)N[C@H](CO)Cc2ccc(O)cc2N1C [compound 2, 9-Hydroxy-5-hydroxymethyl-2-isopropyl-1-methyl-(2S,5S)-1,4,5,6-tetrahydro-2H-benzo[e][1,4] diazocin-3-one]
read-out: Ki [nM] ± SEM
  Ki: 4840 ± 320 nM
